Patent publication US20100286145A1, “ISOPHTHALAMIDE DERIVATIVES INHIBITING BETA-SECRETASE ACTIVITY” (CoMentis, Inc., priority 2007, published 2010)
Where two headings read alike, the source gives them in different places.

What was measured:
[1] = system: Aβ production in Chinese hamster ovary cells that over-express human APP695 with the London and Swedish mutations; test: Cellular Aβ IC50 determination (Aβ40 sandwich ELISA); format: cell-based; conditions: Cricetulus griseus
Outline: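 Aβ40 in media quantified by sandwich ELISA, normalized to control incubations and fitted with a 4-parameter IC50 model. Compounds dosed to a final concentration near 4 μM (0.4% DMSO) on CHO cells expressing human APP695 (London and Swedish mutants) seeded at 10% confluency.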

[2] = biological target: memapsin 2 (Homo sapiens, UniProt P56817); test: Inhibition of memapsin 2 beta-secretase activity (fluorogenic substrate FS-2); format: biochemical; conditions: memapsin 2, pH 4, 37° C., read-out: M2Ki
Chain of memapsin 2 (P56817 46-501): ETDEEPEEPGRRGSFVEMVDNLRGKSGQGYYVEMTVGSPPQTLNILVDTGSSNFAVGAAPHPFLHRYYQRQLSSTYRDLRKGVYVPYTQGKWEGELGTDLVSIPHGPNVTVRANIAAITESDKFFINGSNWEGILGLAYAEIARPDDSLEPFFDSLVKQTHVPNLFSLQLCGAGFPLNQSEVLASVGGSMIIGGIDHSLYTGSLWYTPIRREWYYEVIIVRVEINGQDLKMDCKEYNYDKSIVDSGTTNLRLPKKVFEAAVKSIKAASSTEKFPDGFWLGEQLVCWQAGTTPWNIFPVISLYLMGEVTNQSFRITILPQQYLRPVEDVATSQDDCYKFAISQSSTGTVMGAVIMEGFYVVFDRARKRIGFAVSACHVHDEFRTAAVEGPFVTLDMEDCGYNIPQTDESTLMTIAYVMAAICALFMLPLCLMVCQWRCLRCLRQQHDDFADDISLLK
Outline: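 Kinetic fluorogenic assay: hydrolysis of the MCA/DNP-labelled APP Swedish-variant peptide FS-2 monitored as fluorescence rise at 37° C, pH 4, after 20 min enzyme–compound preincubation. Relative rates fitted with a tight-binding inhibitor model.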

[3] = cellular Aβ production, read-out: IC50

Structure (SMILES) | IC50 [1, 3] [nM] | Ki ([2]; 20 minutes pre-incubation) [nM] | Ki ([2]; fluorogenic substrate FS-2) [nM] | IC50 [1] [nM]
Cc1csc(CN(C)C(=O)c2cccc(C(=O)N[C@@H](Cc3ccccc3)[C@H](O)CNCc3cnn(C(C)(C)C)c3C)c2)n1 [Compound 118, N1-((2S,3R)-4-((1-tert-butyl-5-methyl-1H-pyrazol-4-yl)methylamino)-3-hydroxy-1-phenylbutan-2-yl)-N3-methyl-N3-((4-methylthiazol-2-yl)methyl)isophthalamide] | 1000 to 5000 | > 501 |  | 
Cc1csc(CN(C)C(=O)c2cc(C(=O)N[C@@H](Cc3ccccc3)[C@H](O)CNCc3cncc(C(C)(C)F)c3)cc(-n3cccc3)c2)n1 [Compound 250, N1-((2S,3R)-4-((5-(2-fluoropropan-2-yl)pyridin-3-yl)methylamino)-3-hydroxy-1-phenylbutan-2-yl)-N3-methyl-N3-((4-methylthiazol-2-yl)methyl)-5-(1H-pyrrol-1-yl)isophthalamide] | < 1000 |  | < 300 | 
Cc1csc(CN(C)C(=O)c2cc(CF)cc(C(=O)N[C@@H](Cc3ccccc3)[C@H](O)CNCc3cncc(C(C)C)c3)c2)n1 [Compound 176, 5-(fluoromethyl)-N1-((2S,3R)-3-hydroxy-4-((5-isopropylpyridin-3-yl)methylamino)-1-phenylbutan-2-yl)-N3-methyl-N3-((4-methylthiazol-2-yl)methyl)isophthalamide] | < 1000 | < 300 |  | 
COCc1cc(C(=O)N[C@@H](Cc2ccccc2)[C@H](O)CNCc2cccc(OC)c2)cc(C(=O)N(C)Cc2nc(C)cs2)c1 [Compound 122, N1-((2S,3R)-3-hydroxy-4-(3-methoxybenzylamino)-1-phenylbutan-2-yl)-5-(methoxymethyl)-N3-methyl-N3-((4-methylthiazol-2-yl)methyl)isophthalamide] | < 1000 | < 300 |  | 
CC(=O)Nc1cc(CNC[C@@H](O)[C@H](Cc2ccccc2)NC(=O)c2cccc(C(=O)N(C)Cc3nc(C)cs3)c2)cc(C(F)(F)F)c1 [Compound 276, N1-((2S,3R)-4-(3-acetamido-5-(trifluoromethyl)benzylamino)-3-hydroxy-1-phenylbutan-2-yl)-N3-methyl-N3-((4-methylthiazol-2-yl)methyl)isophthalamide] | < 1000 |  | < 300 | 
Cc1csc(CN(C)C(=O)c2cccc(C(=O)N[C@@H](Cc3ccccc3)[C@H](O)CNCc3cc(C(C)C)cc(S(=O)(=O)C(C)C)c3)c2)n1 [Compound 229, N1-((2S,3R)-3-hydroxy-4-(3-isopropyl-5-(isopropylsulfonyl)benzylamino)-1-phenylbutan-2-yl)-N3-methyl-N3-((4-methylthiazol-2-yl)methyl)isophthalamide] | > 5000 |  | < 300 | 
Cc1csc(CN(C)C(=O)c2cccc(C(=O)N[C@@H](Cc3ccccc3)[C@H](O)CNCc3cccc(C(C)(C)C)c3O)c2)n1 [Compound 77, N1-((2S,3R)-4-(3-tert-butyl-2-hydroxybenzylamino)-3-hydroxy-1-phenylbutan-2-yl)-N3-methyl-N3-((4-methylthiazol-2-yl)methyl)isophthalamide] | < 1000 | < 300 |  | 
Cc1csc(CN(C)C(=O)c2cccc(C(=O)N[C@@H](Cc3ccccc3)[C@H](O)CNCc3cccc(C(C)C)n3)c2)n1 [Compound 10, N1-((2S,3R)-3-hydroxy-4-((6-isopropylpyridin-2-yl)methylamino)-1-phenylbutan-2-yl)-N3-methyl-N3-((4-methylthiazol-2-yl)methyl)isophthalamide] | < 1000 | < 300 |  | 
Cc1csc(CN(C)C(=O)c2cccc(C(=O)N[C@@H](Cc3ccccc3)[C@H](O)CNCc3cccc(C(F)F)c3)c2)n1 [Compound 143, N1-((2S,3R)-4-(3-(difluoromethyl)benzylamino)-3-hydroxy-1-phenylbutan-2-yl)-N3-methyl-N3-((4-methylthiazol-2-yl)methyl)isophthalamide] | < 1000 | < 300 |  | 
Cc1csc(CN(C)C(=O)c2cc(C(=O)N[C@@H](Cc3ccccc3)[C@H](O)CNCc3cc(OC(=O)N(C)C)cc(C(C)C)c3)cc(N(C)C)c2)n1 [Compound 209, 3-(((2R,3S)-3-(3-(dimethylamino)-5-(methyl((4-methylthiazol-2-yl)methyl)carbamoyl)benzamido)-2-hydroxy-4-phenylbutylamino)methyl)-5-isopropylphenyl dimethylcarbamate] |  | < 300 |  | < 1000
CCN(Cc1nc(C)cs1)C(=O)c1cc(OC)cc(C(=O)N[C@@H](Cc2ccccc2)[C@H](O)CNCc2cccc(OC)c2)c1 [Compound 16, N1-ethyl-N3-((2S,3R)-3-hydroxy-4-(3-methoxybenzylamino)-1-phenylbutan-2-yl)-5-methoxy-N1-((4-methylthiazol-2-yl)methyl)isophthalamide] | < 1000 | < 300 |  | 
Cc1csc(CN(C)C(=O)c2cc(C(=O)N[C@@H](Cc3ccccc3)[C@H](O)CNCc3cncc(C(C)(C)C)c3)cc(N(C)C)c2)n1 [Compound 226, N1-((2S,3R)-4-((5-tert-butylpyridin-3-yl)methylamino)-3-hydroxy-1-phenylbutan-2-yl)-5-(dimethylamino)-N3-methyl-N3-((4-methylthiazol-2-yl)methyl)isophthalamide] | < 1000 |  | < 300 | 
Cc1csc(CN(C)C(=O)c2cccc(C(=O)N[C@@H](Cc3ccccc3)[C@H](O)CNCc3cncc(C(C)(F)F)c3)c2)n1 [Compound 217, N1-((2S,3R)-4-((5-(1,1-difluoroethyl)pyridin-3-yl)methylamino)-3-hydroxy-1-phenylbutan-2-yl)-N3-methyl-N3-((4-methylthiazol-2-yl)methyl)isophthalamide] | < 1000 |  | < 300 | 
Cc1cccc(CNC[C@@H](O)[C@H](Cc2ccccc2)NC(=O)c2cccc(C(=O)N(C)Cc3nc(C)cs3)c2)n1 [Compound 115, N1-((2S,3R)-3-hydroxy-4-((6-methylpyridin-2-yl)methylamino)-1-phenylbutan-2-yl)-N3-methyl-N3-((4-methylthiazol-2-yl)methyl)isophthalamide] | < 1000 | > 501 |  | 
Cc1csc(CN(C)C(=O)c2cc(C(=O)N[C@@H](Cc3ccccc3)[C@H](O)CNCc3cncc(C(C)(F)F)c3)cc(C(F)F)c2)n1 [Compound 245, N1-((2S,3R)-4-((5-(1,1-difluoroethyl)pyridin-3-yl)methylamino)-3-hydroxy-1-phenylbutan-2-yl)-5-(difluoromethyl)-N3-methyl-N3-((4-methylthiazol-2-yl)methyl)isophthalamide] | < 1000 |  | < 300 | 
Cc1csc(CN(C)C(=O)c2cccc(C(=O)N[C@@H](Cc3ccccc3)[C@H](O)CNCc3cncc(C4CC4)c3)c2)n1 [Compound 30, N1-((2S,3R)-4-((5-cyclopropylpyridin-3-yl)methylamino)-3-hydroxy-1-phenylbutan-2-yl)-N3-methyl-N3-((4-methylthiazol-2-yl)methyl)isophthalamide] | < 1000 | < 300 |  | 
Cc1csc(CN(C)C(=O)c2cccc(C(=O)N[C@@H](Cc3ccccc3)[C@H](O)CNCc3cc(O)cc(C(C)C)c3)c2)n1 [Compound 125, N1-((2S,3R)-3-hydroxy-4-(3-hydroxy-5-isopropylbenzylamino)-1-phenylbutan-2-yl)-N3-methyl-N3-((4-methylthiazol-2-yl)methyl)isophthalamide] | < 1000 | < 300 |  | 
COc1cccc(CNC[C@@H](O)[C@H](Cc2ccccc2)NC(=O)c2cc(C(=O)N(C)Cc3nc(C)cs3)cc(N(C)C)c2)c1 [Compound 65, 5-(dimethylamino)-N1-((2S,3R)-3-hydroxy-4-(3-methoxybenzylamino)-1-phenylbutan-2-yl)-N3-methyl-N3-((4-methylthiazol-2-yl)methyl)isophthalamide] | < 1000 | < 300 |  | 
Cc1csc(CN(C)C(=O)c2cccc(C(=O)N[C@@H](Cc3ccccc3)[C@H](O)CNCc3cccc(C#N)c3)c2)n1 [Compound 137, N1-((2S,3R)-4-(3-cyanobenzylamino)-3-hydroxy-1-phenylbutan-2-yl)-N3-methyl-N3-((4-methylthiazol-2-yl)methyl)isophthalamide] | < 1000 | < 300 |  | 
COc1cccc(CNC[C@@H](O)[C@H](Cc2ccccc2)NC(=O)c2cc(C(=O)N(C)Cc3nc(C)cs3)cc(-c3ncco3)c2)c1 [Compound 85, N1-((2S,3R)-3-hydroxy-4-(3-methoxybenzylamino)-1-phenylbutan-2-yl)-N3-methyl-N3-((4-methylthiazol-2-yl)methyl)-5-(oxazol-2-yl)isophthalamide] | < 1000 | < 300 |  | 
Cc1csc(CN(C)C(=O)c2cc(CO)cc(C(=O)N[C@@H](Cc3ccccc3)[C@H](O)CNCc3cncc(C(C)C)c3)c2)n1 [Compound 192, N1-((2S,3R)-3-hydroxy-4-((5-isopropylpyridin-3-yl)methylamino)-1-phenylbutan-2-yl)-5-(hydroxymethyl)-N3-methyl-N3-((4-methylthiazol-2-yl)methyl)isophthalamide] | < 1000 | < 300 |  | 
Cc1csc(CN(C)C(=O)c2cc(C(=O)N[C@@H](Cc3ccccc3)[C@H](O)CNCc3cncc(C(C)C)c3)cc(-c3ccco3)c2)n1 [Compound 252, 5-(furan-2-yl)-N1-((2S,3R)-3-hydroxy-4-((5-isopropylpyridin-3-yl)methylamino)-1-phenylbutan-2-yl)-N3-methyl-N3-((4-methylthiazol-2-yl)methyl)isophthalamide] | < 1000 |  | < 300 | 
COC(=O)c1cc(CNC[C@@H](O)[C@H](Cc2ccccc2)NC(=O)c2cccc(C(=O)N(C)Cc3nc(C)cs3)c2)cc(OC)c1 [Compound 54, methyl 3-(((2R,3S)-2-hydroxy-3-(3-(methyl((4-methylthiazol-2-yl)methyl)carbamoyl)benzamido)-4-phenylbutylamino)methyl)-5-methoxybenzoate] | < 1000 | < 300 |  | 
